Test results taken from patent US20250145594A1, “MODULATORS OF THE INTEGRATED STRESS PATHWAY” (Calico Life Sciences LLC, priority 2020, published 2025).

test system: ATF4 luciferase reporter in HEK293T cells; test: ATF4-Luc assay (in vitro model of VWMD); assay type: cell-based, human; conditions: HEK293T cells carrying the ATF4 luciferase reporter, 1 μg/mL tunicamycin, 7 hours, One Glo luminescence
Experimental: In order to test exemplary compounds of the invention in a cellular context, a stable VWMD cell line was first constructed. The ATF4 reporter was prepared by fusing the human full-length ATF4 5′-UTR (NCBI Accession No. BC022088.2) in front of the firefly luciferase (FLuc) coding sequence lacking the initiator methionine as described in Sidrauski et al (eLife 2013). The construct was used to produce recombinant retroviruses using standard methods and the resulting viral supernatant was used to transduce HEK293T cells, which were then subsequently selected with puromycin to generate a stable cell line.
HEK293T cells carrying the ATF4 luciferase reporter were plated on polylysine coated 384-well plates (Greiner Bio-one) at 30,000 cells per well. Cells were treated the next day with 1 μg/mL tunicamycin and 200 nM of a compound of Formula (I) for 7 hours. Luminescence was measured using One Glo (Promega) as specified by the manufacturer. Cells were maintained in DMEM with L-glutamine supplemented with 10% heat-inactivated FBS (Gibco) and Antibiotic-Antimycotic solution (Gibco).
Table 4 below summarizes the EC50 data obtained using the ATF4-Luc assay for exemplary compounds of the invention.

SMILES	EC50 [nM]
O=C(CO[C@H]1C[C@@H](OC(F)(F)F)C1)NC12CC(NC(=O)[C@@H]3CC(O)c4cc(Cl)ccc4O3)(C1)C2 (stereo in doubt) [Compound 295, (2S,4S)-6-chloro-4-hydroxy-N-[3-(2-{[cis-3-(trifluoromethoxy)cyclobutyl]oxy}acetamido)bicyclo[1.1.1]pentan-1-yl]-3,4-dihydro-2H-1-benzopyran-2-carboxamide]	10 to 50

same assay, conditions: Homo sapiens, HEK-293T, 7 h, HEK293T cells carrying the ATF4 luciferase reporter, 1 μg/mL tunicamycin, One Glo luminescence

SMILES	EC50 [nM]
O=C(N[C@H]1C[C@H]2O[C@@H]1C[C@@H]2c1nnc([C@H]2C[C@@H](OC(F)(F)F)C2)o1)[C@@H]1C[C@H](O)c2cc(Cl)ccc2O1 (mixture of isomers) [Compound 186, (2S,4S)-6-chloro-4-hydroxy-N-[(1RS,2SR,4RS,5SR)-5-{5-[cis-3-(trifluoromethoxy)cyclobutyl]-1,3,4-oxadiazol-2-yl}-7-oxabicyclo[2.2.1]heptan-2-yl]-3,4-dihydro-2H-1-benzopyran-2-carboxamide]	10 to 50
O=C(NC12CC(n3cc([C@@H]4C[C@H]4COC(F)(F)F)cn3)(C1)C2)[C@H]1C[C@@H](O)c2cc(Cl)ccc2O1 (mixture of isomers) [Compound 372, (2R,4R)-6-chloro-4-hydroxy-N-[3-(4-{(1RS,2RS)-2-[(trifluoromethoxy)methyl]cyclopropyl}-1H-pyrazol-1-yl)bicyclo[1.1.1]pentan-1-yl]-3,4-dihydro-2H-1-benzopyran-2-carboxamide]	10 to 50
O=C(NC12CC(n3cc([C@@H]4CC[C@@H](OC(F)(F)F)C4)nn3)(C1)C2)[C@H]1C[C@@H](O)c2cc(Cl)ccc2O1 (mixture of isomers) [Compound 538, (2R,4R)-6-chloro-4-hydroxy-N-(3-{4-[(1RS,3RS)-3-(trifluoromethoxy)cyclopentyl]-1H-1,2,3-triazol-1-yl}bicyclo[1.1.1]pentan-1-yl)-3,4-dihydro-2H-1-benzopyran-2-carboxamide]	< 10
O=C(NC12CC(n3cc([C@@H]4CC[C@H](OC(F)(F)F)C4)nn3)(C1)C2)[C@H]1C[C@@H](O)c2cc(Cl)ccc2O1 (mixture of isomers) [Compound 539, (2R,4R)-6-chloro-4-hydroxy-N-(3-{4-[(1RS,3SR)-3-(trifluoromethoxy)cyclopentyl]-1H-1,2,3-triazol-1-yl}bicyclo[1.1.1]pentan-1-yl)-3,4-dihydro-2H-1-benzopyran-2-carboxamide]	10 to 50
O=C(NC12CC(n3cc([C@@H]4C[C@H]4COC(F)(F)F)nn3)(C1)C2)[C@H]1C[C@@H](O)c2cc(Cl)ccc2O1 (mixture of isomers) [Compound 542, (2R,4R)-6-chloro-4-hydroxy-N-[3-(4-{(1RS,2RS)-2-[(trifluoromethoxy)methyl]cyclopropyl}-1H-1,2,3-triazol-1-yl)bicyclo[1.1.1]pentan-1-yl]-3,4-dihydro-2H-1-benzopyran-2-carboxamide]	< 10
CCOC(=O)OC[C@@H]1C[C@H]1c1cn(C23CC(NC(=O)[C@H]4C[C@@H](O)c5cc(Cl)ccc5O4)(C2)C3)nn1 (mixture of isomers) [Compound 543, ((1RS,2RS)-2-[1-(3-{[(2R,4R)-6-chloro-4-hydroxy-3,4-dihydro-2H-1-benzopyran-2-carbonyl]amino}bicyclo[1.1.1]pentan-1-yl)-1H-1,2,3-triazol-4-yl]cyclopropyl)methyl ethyl carbonate]	< 10
O=C(CO[C@H]1C[C@@H](OC(F)(F)F)C1)NC12CC(NC(=O)[C@H]3C[C@@H](O)c4cc(Cl)ccc4O3)(C1)C2 (racemic) [Compound 114, rac-(2R,4R)-6-chloro-4-hydroxy-N-[3-(2-{[(1s,3s)-3-(trifluoromethoxy)cyclobutyl]oxy}acetamido)bicyclo[1.1.1]pentan-1-yl]-3,4-dihydro-2H-1-benzopyran-2-carboxamide]	< 10
O=C(COc1ccc(Cl)c(F)c1)N[C@H]1C[C@H]2O[C@@H]1CC2c1nnc([C@H]2C[C@@H](OC(F)(F)F)C2)o1 (mixture of isomers) [Compound 168, 2-(4-chloro-3-fluorophenoxy)-N-[rac-(1R,2S,4R,5S)-5-{5-[cis-3-(trifluoromethoxy)cyclobutyl]-1,3,4-oxadiazol-2-yl}-7-oxabicyclo[2.2.1]heptan-2-yl]acetamide]	250 to 500
O=C(NCc1ccc(C(F)(F)F)cn1)[C@H]1C[C@H]2O[C@@H]1CC2NC(=O)[C@H]1C[C@@H](O)c2cc(Cl)ccc2O1 (mixture of isomers) [Compound 313, (2R,4R)-6-chloro-4-hydroxy-N-[(1RS,2SR,4RS,5SR)-5-({[5-(trifluoromethyl)pyridin-2-yl]methyl}carbamoyl)-7-oxabicyclo[2.2.1]heptan-2-yl]-3,4-dihydro-2H-1-benzopyran-2-carboxamide]	250 to 500
O=C(NC12CC(n3cc(-c4ccc(OC(F)(F)F)cn4)cn3)(C1)C2)[C@H]1C[C@@H](O)c2cc(F)ccc2O1 (racemic) [Compound 552, rac-(2R,4R)-6-fluoro-4-hydroxy-N-(3-{4-[5-(trifluoromethoxy)pyridin-2-yl]-1H-pyrazol-1-yl}bicyclo[1.1.1]pentan-1-yl)-3,4-dihydro-2H-1-benzopyran-2-carboxamide]	< 10
O=C(NC12CC(n3cc(O[C@H]4CC[C@H](OC(F)(F)F)C4)cn3)(C1)C2)[C@H]1C[C@@H](O)c2cc(Cl)ccc2O1 (racemic) [Compound 586, (2R,4R)-6-chloro-4-hydroxy-N-[3-(4-{[(1RS,3RS)-3-(trifluoromethoxy)cyclopentyl]oxy}-1H-pyrazol-1-yl)bicyclo[1.1.1]pentan-1-yl]-3,4-dihydro-2H-1-benzopyran-2-carboxamide]	10 to 50
COc1ccc2nn(C34CC(NC(=O)[C@H]5C[C@@H](O)c6cc(C(F)(F)F)c(F)cc6O5)(C3)C4)cc2n1 (racemic) [Compound 655, rac-(2R,4R)-7-fluoro-4-hydroxy-N-[3-(5-methoxy-2H-pyrazolo[4,3-b]pyridin-2-yl)bicyclo[1.1.1]pentan-1-yl]-6-(trifluoromethyl)-3,4-dihydro-2H-1-benzopyran-2-carboxamide]	< 10
O=C(NC12CC(n3cc([C@H]4CC[C@@H](OC(F)(F)F)C4)nn3)(C1)C2)[C@H]1C[C@@H](O)c2cc(Cl)ccc2O1 (relative stereo) [Compound 540, (2R,4R)-6-chloro-4-hydroxy-N-(3-{4-[(1S*,3R*)-3-(trifluoromethoxy)cyclopentyl]-1H-1,2,3-triazol-1-yl}bicyclo[1.1.1]pentan-1-yl)-3,4-dihydro-2H-1-benzopyran-2-carboxamide]	10 to 50
O=C(CO[C@H]1C[C@@H](OC(F)(F)F)C1)NC12CCC(NC(=O)[C@@H]3C[C@@H](O)c4cc(Cl)ccc4O3)(CC1)C[C@@H]2O (single isomer, unassigned) [Compound 279]	< 10
O=C(CO[C@H]1C[C@@H](OC(F)(F)F)C1)NC12CC(NC(=O)[C@H]3CC(O)c4cc(Cl)ccc4O3)(C1)C2 (single isomer, unassigned) [Compound 293]	< 10
O=C(NC12CC(n3cc(-c4ccc(OC(F)(F)F)cn4)cn3)(C1)C2)[C@H]1C[C@@H](O)c2cc(F)ccc2O1 (single isomer, unassigned) [Compound 475]	< 10
O=C(NC12CC(n3cc(CCCOC(F)(F)F)cn3)(C1)C2)[C@H]1CC(O)c2cc(Cl)ccc2O1 (stereo in doubt) [Compound 463, (2R,4R)-6-chloro-4-hydroxy-N-(3-{4-[3-(trifluoromethoxy)propyl]-1H-pyrazol-1-yl}bicyclo[1.1.1]pentan-1-yl)-3,4-dihydro-2H-1-benzopyran-2-carboxamide]	< 10
O=C(NC12CC(n3cc(OCCCC(F)(F)F)cn3)(C1)C2)[C@H]1CC(O)c2cc(Cl)c(F)cc2O1 (stereo in doubt) [Compound 464, (2R,4R)-6-chloro-7-fluoro-4-hydroxy-N-{3-[4-(4,4,4-trifluorobutoxy)-1H-pyrazol-1-yl]bicyclo[1.1.1]pentan-1-yl}-3,4-dihydro-2H-1-benzopyran-2-carboxamide]	< 10
Cc1cc(C)cc(OCC2CN(C34CC(NC(=O)[C@H]5CC(=O)c6cc(Cl)ccc6O5)(C3)C4)C(=O)O2)c1 (stereo partly drawn) [Compound 100, (2R)-6-chloro-N-(3-{5-[(3,5-dimethylphenoxy)methyl]-2-oxo-1,3-oxazolidin-3-yl}bicyclo[1.1.1]pentan-1-yl)-4-oxo-3,4-dihydro-2H-1-benzopyran-2-carboxamide]	> 2000
O=C1C[C@H](C(=O)N[C@H]2C[C@H]3CC[C@@H](C2)N3CCCOc2ccc(Cl)cc2)Oc2ccc(Cl)cc21 [Compound 101, (2R)-6-chloro-N-{(1R,3r,5S)-8-[3-(4-chlorophenoxy)propyl]-8-azabicyclo[3.2.1]octan-3-yl}-4-oxo-3,4-dihydro-2H-1-benzopyran-2-carboxamide]	> 2000
O=C(CO[C@H]1C[C@@H](OC(F)(F)F)C1)NC12CCC(NC(=O)[C@H]3C[C@@H](O)c4cc(Cl)ccc4O3)(CC1)C[C@@H]2O [Compound 117, (2R,4R)-6-chloro-4-hydroxy-N-[(3S)-3-hydroxy-4-(2-{[(1s,3R)-3-(trifluoromethoxy)cyclobutyl]oxy}acetamido)bicyclo[2.2.2]octan-1-yl]-3,4-dihydro-2H-1-benzopyran-2-carboxamide]	< 10
